Measured values reported in patent US12708676B2, “Phosphate compounds for detecting neurological disorders” (Amydis, Inc., priority 2018, dated 2026).
Values after ≈ are worked out from the molar mass of the structure shown. Like-named read-outs stand apart in the source and are kept apart here.

Key:
[1] = Solubility of Compound 7 in various media; format: physicochemical
Method: The physical properties of Compound 7 were determined.

[2] = Rabbit pharmacokinetics of Compound 9, Study 1 (retina, brain, blood); format: in vivo; details: for concentration at 15 min / concentration at 30 min / concentration at 60 min: Study 1, 30 mg Compound 9 injected
Method: (§1) Compound 9 was injected into rabbits as a solution in 0.1 M phosphate buffer, pH 7.4 such that rabbits received either 30 mg of Compound 9 (Study 1) or 28 mg of Compound 9 (Study 2). The purpose of these studies was to confirm that Compound 9 could easily be converted into Compound 7 in vivo.
Study 1: Rabbits received a 1.5 mL injection of a 20 mg/mL solution of Compound 9 in 0.1 M phosphate buffer, pH 7.4. Rabbits were sacrificed at the specified time points (N=3 per time point) in the tables below and the average concentration of Compound 9 and Compound 7 was determined in the retina (Table 3), brain (Table 4) and blood (Table 5).

[3] = Rabbit pharmacokinetics of Compound 9, Study 2 (retina, brain, blood/plasma); format: in vivo; details: rabbit
Method: as §1
Study 2: The purpose of this study was to determine if higher concentrations of Compound 9 and/or Compound 7 was present at earlier time points in the tissues specified. Rabbits received a 1.4 mL injection of a 20 mg/mL solution of Compound 9 in 0.1 M phosphate buffer, pH 7.4. Blood was collected from rabbits (N=6) two minutes after receiving Compound 9 to determine the blood concentration at this time point (Table 8). Rabbits were then sacrificed at the specified time points (N=3 per time point) in the tables below and the average concentrations of Compound 9 and Compound 7 were determined in the retina (Table 6), brain (Table 7) and blood (Table 8).

[4] = system: Aβ; assay: Example 4: detection of Aβ in the retina of a TBI (blast) mouse model; format: in vivo; details: after Compound 9 intravenously, example in present tense
Method: This example is conducted to determine whether Compound 9 detects Aβ in the retina of a TBI mouse model.
Blast model mice 24 hours after injury and a non-injured mouse are administered Compound 9 intravenously. Mice retinas are scanned by scanning laser ophthalmoscopy (SLO).
Alternatively, or in addition to retinal scanning, retinal tissues are removed and stained with an anti-Aβ antibody (6E10).

[5] = molecular target: prion deposits (Mus musculus, UniProt P04925); format: in vivo; details: administered as Compound 10
Chain of prion deposits (P04925 23-230 limits assumed): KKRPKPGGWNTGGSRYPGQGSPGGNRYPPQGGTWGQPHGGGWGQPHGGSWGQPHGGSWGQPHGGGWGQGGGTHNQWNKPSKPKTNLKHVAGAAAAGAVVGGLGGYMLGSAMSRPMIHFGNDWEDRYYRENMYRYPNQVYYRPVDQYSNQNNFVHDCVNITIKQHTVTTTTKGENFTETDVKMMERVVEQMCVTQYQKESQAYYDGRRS

[6] = molecular target: Aβ40 (Homo sapiens, UniProt P05067, D694N/E693Q); assay: Example 8: in vivo retinal imaging and ex vivo IHC of APPSwDI, PSAPP and wild type mice; parameters: species or system mouse; details: APPSwDI mouse
[7] = system: Aβ40; assay: as above; parameters: species or system mouse; details: PSAPP mouse
[8] = molecular target: α-syn deposits (Homo sapiens, UniProt P37840); assay: Example 9: retinal imaging of Line 61 Parkinson's Disease Tg mouse model; format: in vivo
Excerpt: Two transgenic mouse models of Parkinson's Disease (D-line and Line 61) were examined for retinal α-syn deposits. The models selected produce α-syn deposition in the brain, but to date production in the retina had not been determined. […] After live imaging, mice were sacrificed, and the brain and retina were harvested for immunofluorescence and biochemistry.
Accordingly, Line 61 model manifest retinal α-syn in ~30% of mice and was useful in showing the utility of the disclosed compounds. […] Brain tissue was extracted post-mortem from mice after the last imaging session and stained with DAPI and a SYN1 antibody confirming the presence of α-syn in the Line 61 Mouse brain.
To confirm objects detected in vivo were α-syn, retinal tissue was extracted post-mortem from mice after the last imaging session and stained with DAPI and a SYN1 antibody (FIG. 11).

[9] = molecular target: alpha-synuclein (Homo sapiens, UniProt P37840); assay: Example 9: ex vivo flatmount staining of human retinas with Compound 7 and SYN-1 Ab; format: binding; details: for Average No. of co-stained objects / Average No. of singly-stained objects: PD retina, per ~250,000 μm^2 area; for Average No. of co-stained objects: co-stained with SYN-1; for Co-localization with alpha-synuclein (SYN-1 Ab): 60 μM Compound 7
Method: To understand if Compound 7 (active drug) can detect retinal α-syn in human eyes, human retinal tissue was extracted post-mortem from both a healthy patient and a patient diagnosed with Parkinson's Disease, and stained with Compound 7, DAPI and a SYN1 antibody.
Eye dissection: Cornea, iris and lens were removed from the eye cup and the eye placed into 4% PFA for 1 hour. […] The different regions were mounted on separate slides.
Flatmount retinal staining: The tissue was fixed in room temperature 4% PFA for 20 minutes, washed, permeabilized, blocked (2.5% goat serum in PBST), stained with Alpha-synuclein antibody (SYN-1) at a dilution of 1:1000 and incubate overnight at 4° C., washed with PBST (3 times for 5 minutes), incubated with secondary antibody (Alexa fluor 647 anti-mouse) in dark for 1 hr at RT. The tissue was then washed with PB ST (3 times for 5 minutes), incubated with 60 μM Compound 7 for 30 minutes at RT, washed with PBS (3 times for 10 minutes), incubate with DAPI (300 nM or 100 ng/mL) in dark for 10 minutes, and washed with PBS (3 times for 5 minutes). The tissue was then mounted using antifade DAKO mounting media.
To determine the number of objects co-stained with Compound 7 and SYN1, the average number of objects co-stained with Compound 7 and SYN1 was quantified. This was completed for each quadrant of both the left and right eye (Table 10 and Table 11).

[10] = blood, other: injection (site not specified), read-out: Avg Conc., blood
[11] = retina, other: injection (kind of injection not stated), read-out: Avg Conc., retina
[12] = brain, other: injection (site or type of injection not stated), Study 2, 28 mg Compound 9 injected, read-out: Avg Conc., brain
[13] = plasma, other: injection (site not specified), Study 2, 28 mg Compound 9 injected, read-out: Avg Conc., plasma
[14] = retina, other: injection (site not stated), Study 2, 28 mg Compound 9 injected, read-out: Avg Conc., retina
[15] = 15 minutes after iv Compound 10
[16] = labelling from in vivo injection of Compound 10

SMILES: N#C/C(=C\c1ccc2cc(N3CCCCC3)ccc2c1)C(=O)NCCOCCOCCO [Compound 7, (E)-2-cyano-N-(2-(2-(2-hydroxyethoxy)ethoxy)ethyl)-3-(6-(piperidin-1-yl)naphthalen-2-yl)acrylamide]
- solubility ([1]; SGF, simulated gastric fluid): 3600 µg/mL (≈ 8230 µM)
- solubility ([1]; castor oil, oil or lipid): > 9000 µg/mL
- solubility ([1]; n-octanol, organic solvent or mixture): > 8000 µg/mL
- solubility ([1]; pH 4.0 buffer, pH 4, aqueous buffer): 70 µg/mL (≈ 160 µM)
- solubility ([1]; pH 7.0 buffer, pH 7, aqueous buffer): 4.6 µg/mL (≈ 10.5 µM)
- solubility ([1]; pH 7.4 buffer, pH 7.4, aqueous buffer): 3.3 µg/mL (≈ 7.54 µM)
- solubility ([1]; pH 9.0 buffer, pH 9, aqueous buffer): 4.8 µg/mL (≈ 11 µM)
- solubility ([1]; water): 1.7 µg/mL (≈ 3.89 µM)
- Kp,brain by 30 minutes ([2]; 30 minutes after injection of Compound 9): significantly decreased to undetectable values
- concentration at 15 min [2, 10]: 217 ± 31.2 ng/mL
- concentration at 30 min [2, 10]: 9.41 ± 1.89 ng/mL
- concentration at 60 min [2, 10]: 2.1 ± 2.43 ng/mL
- concentration at 15 min ([2]; brain, other: injection (site not specified), read-out: Avg Conc., brain): 0.987 ± 0.273 ng/g
- Circulation time in the retina ([2]; levels significantly decreasing over an hour): relatively short
- concentration at 15 min [2, 11]: 10.1 ± 7.3 ng/g
- concentration at 30 min [2, 11]: 2.13 ± 1.71 ng/g
- concentration at 60 min [2, 11]: 0.779 ± 0.325 ng/g
- concentration at 5 min [3, 12]: 316 ± 91.6 ng/g
- concentration at 10 min [3, 12]: 68.1 ± 8.86 ng/g
- concentration at 2 min ([3]; plasma, other: injection (site not specified), Study 2, 28 mg Compound 9 injected, 2 min, read-out: Avg Conc., plasma): 1480 ± 409 ng/mL
- concentration at 5 min [3, 13]: 975 ± 317 ng/mL
- concentration at 10 min [3, 13]: 251 ± 13.9 ng/mL
- Time at which Kp,brain was highest ([3]; post-dose of Compound 9): 5 min
- Delivery past the blood brain barrier and into retinal tissue ([3]; via administration of Compound 9 diammonium salt): delivered past the blood brain barrier (BBB) and, more importantly, into retinal tissue
- concentration at 5 min [3, 14]: 682 ± 119 ng/g
- concentration at 10 min [3, 14]: 183 ± 152 ng/g
- concentration at 5 min ([3]; retina, Study 2, 28 mg Compound 9 injected, read-out: Avg Conc., retina): 682 ng/g
- Fluorescent labelling of retinal deposits ([4]; mouse with blast injury): fluorescently labels retinal deposits that are visible upon fluorescent activation
- Fluorescent enhancement in retinal tissue ([4]; uninjured mouse): does not display any fluorescent enhancement
- Labelling of retinal prion deposits in vivo ([5]; pre-symptomatic prion-inoculated mice): successfully labelled large objects around the optic disk and vasculature believed to be prion deposits
- Labelling of retinal prion deposits in vivo ([5]; terminally diseased prion mice): successfully labelled large objects around the optic disk and vasculature believed to be prion deposits
- Labelling in brain sections, ex vivo IHC [6, 15]: amyloid deposits along a vessel labeled with Compound 7 and 6E10
- Structures labelled in retinal tissue ([6]; administered as Compound 10): labels both vessels and diffuse deposits in the retinal tissue
- Co-localization with 6E10 in retina, ex vivo IHC [6, 16]: co-localized with a sequence specific antibody for Aβ (6E10)
- Labelling in brain sections, ex vivo IHC [7, 15]: labeling of amyloid plaques with Compound 7 and 6E10
- Co-localization with 6E10 in retina, ex vivo IHC [7, 16]: co-localization of Compound 7 with 6E10
- Specificity for α-syn deposits ([8]; Line 61 model, via administration of Compound 10): specific for α-syn deposits associated with Parkinson's Disease
- Co-localization with SYN1 ([8]; brain and retinal tissue of Tg mice): co-localizes with an anti-alpha-synuclein antibody (SYN1)
- Average No. of co-stained objects ([9]; left eye, Inferior): 13.6
- Average No. of singly-stained objects ([9]; left eye, Inferior): 0.87
- Average No. of co-stained objects ([9]; left eye, Nasal): 13
- Average No. of singly-stained objects ([9]; left eye, Nasal): 0.75
- Average No. of co-stained objects ([9]; left eye, Superior): 20
- Average No. of singly-stained objects ([9]; left eye, Superior): 0.25
- Average No. of co-stained objects ([9]; left eye, Temporal): 12.37
- Average No. of singly-stained objects ([9]; left eye, Temporal): 0.5
- Average No. of co-stained objects ([9]; right eye, Inferior): 12.12
- Average No. of singly-stained objects ([9]; right eye, Inferior): 0.75
- Average No. of co-stained objects ([9]; right eye, Nasal): 14.3
- Average No. of singly-stained objects ([9]; right eye, Nasal): 1.75
- Average No. of co-stained objects ([9]; right eye, Superior): 16
- Average No. of singly-stained objects ([9]; right eye, Superior): 0.5
- Average No. of co-stained objects ([9]; right eye, Temporal): 11.62
- Average No. of singly-stained objects ([9]; right eye, Temporal): 0.5
- Co-localization with alpha-synuclein (SYN-1 Ab) ([9]; post-mortem retinas of healthy human patient): very little or no co-localization
- Co-localization with alpha-synuclein (SYN-1 Ab) ([9]; post-mortem retinas of human PD patient): co-localization of Compound 7 and Alpha-Synuclein deposits (SYN-1 Ab) in all regions
